Measured values published in US5919784A, “Heterocyclic aminomethyl compounds” (Adir Et Compagnie, priority 1996, dated 1999).
Where a name gives a salt, the structure may show the parent alone.

How the values were obtained:
D4 receptors = settings: literature; cited from earlier work
human D4.4 receptor = molecular target: T1, human D4.4 receptor (Homo sapiens, UniProt P21917); assay: Antagonism at human D4.4 receptors, [35S]GTPγS binding (G protein activation) stimulated by dopamine; type: biochemical; settings: antagonism of dopamine-stimulated [35S]GTPγS binding; antagonist preincubated with fixed concentration of dopamine 30 min; CHO membranes; read-out: Kb (antagonist potency constant)
T1 construct: purchased Receptor Biology Inc. (Md., USA); host or cells: CHO cells (transfected), membranes
T1 sequence (P21917 1-419): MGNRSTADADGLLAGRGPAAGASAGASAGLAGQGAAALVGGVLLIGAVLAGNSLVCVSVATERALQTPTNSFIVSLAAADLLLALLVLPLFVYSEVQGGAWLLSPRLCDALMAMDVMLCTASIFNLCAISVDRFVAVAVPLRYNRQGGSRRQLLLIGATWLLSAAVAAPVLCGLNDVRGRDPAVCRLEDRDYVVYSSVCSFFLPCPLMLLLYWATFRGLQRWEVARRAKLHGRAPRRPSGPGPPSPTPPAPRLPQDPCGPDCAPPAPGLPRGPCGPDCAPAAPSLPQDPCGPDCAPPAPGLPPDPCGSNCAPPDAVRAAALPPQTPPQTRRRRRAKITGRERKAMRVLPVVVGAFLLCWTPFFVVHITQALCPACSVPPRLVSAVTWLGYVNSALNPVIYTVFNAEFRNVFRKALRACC
Procedure: The efficacy was determined by measuring the activation of G proteins by stimulating the binding of [^35 S]GTPγS (NEN, Les Ulis, France). The membranes prepared from CHO cells transfected with the human D4.4 receptor were purchased from Receptor Biology Inc. (Md., USA). The membranes (50 μg of membrane protein) are incubated in triplicate with 0.1 nM [^35 S]GTPγS and the cold ligand in a final volume of 0.5 ml for 20 min at 25° C. The incubation buffer contains 20 mM HEPES (pH 7.4), 3 μM GDP, 3 mM MgCl2 and 100 mM NaCl. At the end of the incubation, the incubation medium is filtered through WHATMAN GF/B filters impregnated with water and washed three times with 2 ml of cooled buffer. The radioactivity retained on the filters is determined by liquid scintillation counting. The binding isotherms are analyzed by nonlinear regression using `PRISM` software (GraphPad Software Inc., S. Diego, USA) to determine EC50 and efficacy (Emax) values. The efficacy is expressed as a percentage of the stimulation of the binding of [^35 S]GTPγS induced by dopamine.
For the tests of antagonism, the membranes are preincubated with the antagonist at a fixed concentration of dopamine for 30 min before adding the [^35 S]GTPγS. […]
in which [Antagonist] is the antagonist concentration and EC50 is the EC50 determined in the absence of antagonist (dopamine alone).

Structure (SMILES) | affinity for the D4 receptors (in words) (D4 receptors) | Kb (human D4.4 receptor) [nM]
CN1CCN(C2=Nc3cc(Cl)ccc3Nc3ccccc32)CC1 [clozapine] | high affinity | 
Cn1c(=O)sc2cc(CN3CCN(c4ccccc4F)CC3)ccc21 [Example 3, 3-METHYL-6-[(4-(2-FLUOROPHENYL)-1-PIPERAZINYL)METHYL]-BENZOTHIAZOLINONE] |  | 16.1 ± 5
NC[C@H](O)c1ccc(O)c(O)c1 [noradrenaline] | high affinity | 
COc1ccccc1N1CCN(Cc2ccc3c(c2)sc(=O)n3C)CC1 [Example 1, 3-METHYL-6-[(4-(2-METHOXYPHENYL)-1-PIPERAZINYL)METHYL]-BENZOTHIAZOLINONE HYDROCHLORIDE] |  | 2.39 ± 1.1
